From US11802111B2, “Cyclobutyl amide monoacylglycerol lipase modulators” (Janssen Pharmaceutica NV, priority 2020, dated 2023) come the findings set out here.

Molecules are shown by their SMILES.

Sequence of human MGL from HeLa cells (Q99685 whole entry): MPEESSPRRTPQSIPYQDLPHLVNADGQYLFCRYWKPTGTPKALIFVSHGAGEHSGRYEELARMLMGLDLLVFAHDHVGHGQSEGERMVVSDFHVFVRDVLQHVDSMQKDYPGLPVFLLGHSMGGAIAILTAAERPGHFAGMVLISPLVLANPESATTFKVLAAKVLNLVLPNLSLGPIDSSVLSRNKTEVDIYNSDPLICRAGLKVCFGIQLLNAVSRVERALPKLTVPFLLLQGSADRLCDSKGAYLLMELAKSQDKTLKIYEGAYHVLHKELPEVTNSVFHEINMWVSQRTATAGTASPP

This assay addresses human MGL from HeLa cells (Homo sapiens (Human), UniProt Q99685). Kind of assay: MGL in vitro activity assay ([glycerol-1,3-3H]-oleoyl glycerol hydrolysis, activated carbon filtration). It is filed as biochemical. Conditions: 300 nM [Glycerol-1,3-3H]-oleoyl glycerol, one hour. The essentials: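 Activity measured as tritium in the flow-through after activated carbon filtration of a 1 h reaction containing 300 nM 3H-oleoyl glycerol, compound and HeLa-derived human MGL. Compounds screened at 10 μM; IC50 series start at an empirically chosen highest concentration.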
What is called IC50 is the concentration that gives 50% inhibition. For `CCc1nc(OC2CCC3(CC2)CN(C(=O)[C@H]2C[C@@](C)(O)C2)C3)ccc1C(F)F` [Example 440, (7-((5-(Difluoromethyl)-6-ethylpyridin-2-yl)oxy)-2-azaspiro[3.5]nonan-2-yl)((1s,3s)-3-hydroxy-3-methylcyclobutyl)methanone], the IC50 stood at 15 nM. Under `CCc1ccc(C(F)F)c(OC2CCC3(CC2)CN(C(=O)[C@H]2C[C@@](C)(O)C2)C3)n1` [Example 441, (7-((3-(Difluoromethyl)-6-ethylpyridin-2-yl)oxy)-2-azaspiro[3.5]nonan-2-yl)((1s,3s)-3-hydroxy-3-methylcyclobutyl)methanone] stands 14 nM. Next, `Cc1cc(OC2CCC3(CC2)CN(C(=O)[C@H]2C[C@@](C)(O)C2)C3)ncc1C(F)(F)F` [Example 442, ((1s,3s)-3-Hydroxy-3-methylcyclobutyl)(7-((4-methyl-5-(trifluoromethyl)pyridin-2-yl)oxy)-2-azaspiro[3.5]nonan-2-yl)methanone]: 9.6 nM; `Cc1ccc(C(F)(F)F)c(OC2CCC3(CC2)CN(C(=O)[C@H]2C[C@@](C)(O)C2)C3)n1` [Example 443, ((1s,3s)-3-Hydroxy-3-methylcyclobutyl)(7-((6-methyl-3-(trifluoromethyl)pyridin-2-yl)oxy)-2-azaspiro[3.5]nonan-2-yl)methanone]: 17 nM.

Consider `Cc1cc(C(F)(F)F)cnc1OC1CCC2(CC1)CN(C(=O)[C@H]1C[C@@](C)(O)C1)C2` [Example 446, ((1s,3s)-3-Hydroxy-3-methylcyclobutyl)(7-((3-methyl-5-(trifluoromethyl)pyridin-2-yl)oxy)-2-azaspiro[3.5]nonan-2-yl)methanone], for which the IC50 is 0.76 nM.

`Cc1cc(C(F)(F)F)cc(OC2CCC3(CC2)CN(C(=O)[C@H]2C[C@@](C)(O)C2)C3)n1` [Example 447, ((1s,3s)-3-Hydroxy-3-methylcyclobutyl)(7-((6-methyl-4-(trifluoromethyl)pyridin-2-yl)oxy)-2-azaspiro[3.5]nonan-2-yl)methanone]: the IC50 was found to be 110 nM. Under `Cc1nc(OC2CCC3(CC2)CN(C(=O)[C@H]2C[C@@](C)(O)C2)C3)ccc1C(F)(F)F` [Example 448, ((1s,3s)-3-Hydroxy-3-methylcyclobutyl)(7-((6-methyl-5-(trifluoromethyl)pyridin-2-yl)oxy)-2-azaspiro[3.5]nonan-2-yl)methanone] stands 2.4 nM; under `Cc1ccc(C(F)(F)F)nc1OC1CCC2(CC1)CN(C(=O)[C@H]1C[C@@](C)(O)C1)C2` [Example 449, ((1s,3s)-3-Hydroxy-3-methylcyclobutyl)(7-((3-methyl-6-(trifluoromethyl)pyridin-2-yl)oxy)-2-azaspiro[3.5]nonan-2-yl)methanone], 8.5 nM; under `CCc1ccc(OC2CCC3(CC2)CN(C(=O)[C@H]2C[C@@](C)(O)C2)C3)nc1C(F)(F)F` [Example 450, (7-((5-Ethyl-6-(trifluoromethyl)pyridin-2-yl)oxy)-2-azaspiro[3.5]nonan-2-yl)((1s,3s)-3-hydroxy-3-methylcyclobutyl)methanone], 2.9 nM. Next, `Cc1ccc(OC2CCC3(CC2)CN(C(=O)[C@H]2C[C@@](C)(O)C2)C3)nc1C(F)(F)F` [Example 451, ((1s,3s)-3-Hydroxy-3-methylcyclobutyl)(7-((5-methyl-6-(trifluoromethyl)pyridin-2-yl)oxy)-2-azaspiro[3.5]nonan-2-yl)methanone]: 8.2 nM; `CC[C@]1(O)C[C@@H](C(=O)N2CC3(CCC(Oc4ccc(C)c(C(F)(F)F)n4)CC3)C2)C1` [Example 452, ((1r,3s)-3-Ethyl-3-hydroxycyclobutyl)(7-((5-methyl-6-(trifluoromethyl)pyridin-2-yl)oxy)-2-azaspiro[3.5]nonan-2-yl)methanone]: 20 nM. In the case of `Cc1ccc(OC2CCC3(CC2)CN(C(=O)[C@H]2C[C@](O)(C(F)F)C2)C3)nc1C(F)(F)F` [Example 453, ((1s,3s)-3-(Difluoromethyl)-3-hydroxycyclobutyl)(7-((5-methyl-6-(trifluoromethyl)pyridin-2-yl)oxy)-2-azaspiro[3.5]nonan-2-yl)methanone], the IC50 came to 19 nM.

The molecule `CCc1ccc(OC2CCC3(CC2)CN(C(=O)[C@H]2C[C@@](C)(O)C2)C3)nc1OC` [Example 454, (7-((5-Ethyl-6-methoxypyridin-2-yl)oxy)-2-azaspiro[3.5]nonan-2-yl)((1s,3s)-3-hydroxy-3-methylcyclobutyl)methanone] displayed an IC50 of 2.2 nM. As to `COc1nc(OC2CCC3(CC2)CN(C(=O)[C@H]2C[C@@](C)(O)C2)C3)ccc1C1CC1` [Example 455, (7-((5-Cyclopropyl-6-methoxypyridin-2-yl)oxy)-2-azaspiro[3.5]nonan-2-yl)((1s,3s)-3-hydroxy-3-methylcyclobutyl)methanone], the midpoint of inhibition, the IC50, lay at 1.3 nM.

For the molecule `COc1nc(OC2CCC3(CC2)CN(C(=O)[C@H]2C[C@@](C)(O)C2)C3)ccc1C` [Example 456, ((1s,3s)-3-Hydroxy-3-methylcyclobutyl)(7-((6-methoxy-5-methylpyridin-2-yl)oxy)-2-azaspiro[3.5]nonan-2-yl)methanone], it took 19 nM to reach half-maximal inhibition (IC50). Next, `C[C@]1(O)C[C@@H](C(=O)N2CC3(CCC(Oc4ncc(C(F)(F)F)cc4F)CC3)C2)C1` [Example 457, (7-((3-Fluoro-5-(trifluoromethyl)pyridin-2-yl)oxy)-2-azaspiro[3.5]nonan-2-yl)((1s,3s)-3-hydroxy-3-methylcyclobutyl)methanone]: 13 nM; `COc1nc(OC2CCC3(CC2)CN(C(=O)[C@H]2C[C@@](C)(O)C2)C3)ccc1C(F)(F)F` [Example 458, ((1s,3s)-3-Hydroxy-3-methylcyclobutyl)(7-((6-methoxy-5-(trifluoromethyl)pyridin-2-yl)oxy)-2-azaspiro[3.5]nonan-2-yl)methanone]: 0.55 nM. Under `CCOc1nc(OC2CCC3(CC2)CN(C(=O)[C@H]2C[C@@](C)(O)C2)C3)ccc1C(F)(F)F` [Example 459, (7-((6-Ethoxy-5-(trifluoromethyl)pyridin-2-yl)oxy)-2-azaspiro[3.5]nonan-2-yl)((1s,3s)-3-hydroxy-3-methylcyclobutyl)methanone] stands 0.22 nM; under `COc1cc(OC2CCC3(CC2)CN(C(=O)[C@H]2C[C@@](C)(O)C2)C3)ncc1Cl` [Example 460, (7-((5-Chloro-4-methoxypyridin-2-yl)oxy)-2-azaspiro[3.5]nonan-2-yl)((1s,3s)-3-hydroxy-3-methylcyclobutyl)methanone], 142 nM; under `COc1nc(OC2CCC3(CC2)CN(C(=O)[C@H]2C[C@@](C)(O)C2)C3)ccc1Cl` [Example 461, (7-((5-Chloro-6-methoxypyridin-2-yl)oxy)-2-azaspiro[3.5]nonan-2-yl)((1s,3s)-3-hydroxy-3-methylcyclobutyl)methanone], 6.1 nM. Next, `COc1ccc(Cl)c(OC2CCC3(CC2)CN(C(=O)[C@H]2C[C@@](C)(O)C2)C3)n1` [Example 462, (7-((3-Chloro-6-methoxypyridin-2-yl)oxy)-2-azaspiro[3.5]nonan-2-yl)((1s,3s)-3-hydroxy-3-methylcyclobutyl)methanone]: 6.8 nM; `COc1cc(Cl)cnc1OC1CCC2(CC1)CN(C(=O)[C@H]1C[C@@](C)(O)C1)C2` [Example 463, (7-((5-Chloro-3-methoxypyridin-2-yl)oxy)-2-azaspiro[3.5]nonan-2-yl)((1s,3s)-3-hydroxy-3-methylcyclobutyl)methanone]: 9.7 nM; `COc1ccnc(OC2CCC3(CC2)CN(C(=O)[C@H]2C[C@@](C)(O)C2)C3)c1Cl` [Example 464, (7-((3-Chloro-4-methoxypyridin-2-yl)oxy)-2-azaspiro[3.5]nonan-2-yl)((1s,3s)-3-hydroxy-3-methylcyclobutyl)methanone]: 81 nM. For the molecule `Cc1cc(OC2CCC3(CC2)CN(C(=O)[C@H]2C[C@@](C)(O)C2)C3)nc(C)c1C(F)(F)F` [Example 465, (7-((4,6-Dimethyl-5-(trifluoromethyl)pyridin-2-yl)oxy)-2-azaspiro[3.5]nonan-2-yl)((1s,3s)-3-hydroxy-3-methylcyclobutyl)methanone], the IC50 worked out at 2.7 nM. Under `Cc1cc(C(F)(F)F)c(C)nc1OC1CCC2(CC1)CN(C(=O)[C@H]1C[C@@](C)(O)C1)C2` [Example 466, (7-((3,6-Dimethyl-5-(trifluoromethyl)pyridin-2-yl)oxy)-2-azaspiro[3.5]nonan-2-yl)((1s,3s)-3-hydroxy-3-methylcyclobutyl)methanone] stands 0.1 nM; under `C[C@]1(O)C[C@@H](C(=O)N2CC3(CCC(Oc4ncc(C(F)(F)F)cn4)CC3)C2)C1` [Example 467, ((1s,3s)-3-Hydroxy-3-methylcyclobutyl)(7-((5-(trifluoromethyl)pyrimidin-2-yl)oxy)-2-azaspiro[3.5]nonan-2-yl)methanone], 858 nM; under `C[C@]1(O)C[C@@H](C(=O)N2CC3(CCC(Oc4ccc5c(n4)CCC5)CC3)C2)C1` [Example 468, (7-((6,7-Dihydro-5H-cyclopenta[b]pyridin-2-yl)oxy)-2-azaspiro[3.5]nonan-2-yl)((1s,3s)-3-hydroxy-3-methylcyclobutyl)methanone], 29 nM. Next, `Cn1ccc2ccc(OC3CCC4(CC3)CN(C(=O)[C@H]3C[C@@](C)(O)C3)C4)nc21` [Example 469, ((1s,3s)-3-Hydroxy-3-methylcyclobutyl)(7-((1-methyl-1H-pyrrolo[2,3-b]pyridin-6-yl)oxy)-2-azaspiro[3.5]nonan-2-yl)methanone]: 18 nM; `Cc1cc(OC2CCC3(CC2)CN(C(=O)[C@H]2C[C@@](C)(O)C2)C3)nc2c1ccn2C` [Example 470, (7-((1,4-Dimethyl-1H-pyrrolo[2,3-b]pyridin-6-yl)oxy)-2-azaspiro[3.5]nonan-2-yl)((1s,3s)-3-hydroxy-3-methylcyclobutyl)methanone]: 11 nM.
